Earlier results on one compound are cited in US8350024B2, “Sugar derivatives and application of same” (priority 2006, dated 2013).

This data set deals with herpes simplex virus type 2. As to conditions: conventional drug, comparison value.

Turning to `Nc1nc2c(ncn2COCCO)c(=O)[nH]1` [acyclovir], the selection index result is on record as “about 800”.
